Source: ChEMBL document CHEMBL4304811, “Development of a Water-Soluble Indolylmaleimide Derivative IM-93 Showing Dual Inhibition of Ferroptosis and NETosis” (ACS Med Chem Lett, 2019)

What was measured:
[1] = biological target: Activin receptor type-1 (Homo sapiens) (UniProt Q04771); assay: Binding affinity to wild-type human ACVR1 (C188 to C509 residues) expressed in bacterial expression system assessed as residual binding level at 10 uM by Kinomescan method relative to control
[2] = biological target: Tyrosine-protein kinase BTK (Homo sapiens) (UniProt Q06187); assay: Binding affinity to wild-type human full length BTK (M1 to S659 residues) expressed in mammalian expression system assessed as residual binding level at 10 uM by Kinomescan method relative to control
Sequence of Tyrosine-protein kinase BTK (Homo sapiens) (Q06187 whole entry, the tested form may be a part): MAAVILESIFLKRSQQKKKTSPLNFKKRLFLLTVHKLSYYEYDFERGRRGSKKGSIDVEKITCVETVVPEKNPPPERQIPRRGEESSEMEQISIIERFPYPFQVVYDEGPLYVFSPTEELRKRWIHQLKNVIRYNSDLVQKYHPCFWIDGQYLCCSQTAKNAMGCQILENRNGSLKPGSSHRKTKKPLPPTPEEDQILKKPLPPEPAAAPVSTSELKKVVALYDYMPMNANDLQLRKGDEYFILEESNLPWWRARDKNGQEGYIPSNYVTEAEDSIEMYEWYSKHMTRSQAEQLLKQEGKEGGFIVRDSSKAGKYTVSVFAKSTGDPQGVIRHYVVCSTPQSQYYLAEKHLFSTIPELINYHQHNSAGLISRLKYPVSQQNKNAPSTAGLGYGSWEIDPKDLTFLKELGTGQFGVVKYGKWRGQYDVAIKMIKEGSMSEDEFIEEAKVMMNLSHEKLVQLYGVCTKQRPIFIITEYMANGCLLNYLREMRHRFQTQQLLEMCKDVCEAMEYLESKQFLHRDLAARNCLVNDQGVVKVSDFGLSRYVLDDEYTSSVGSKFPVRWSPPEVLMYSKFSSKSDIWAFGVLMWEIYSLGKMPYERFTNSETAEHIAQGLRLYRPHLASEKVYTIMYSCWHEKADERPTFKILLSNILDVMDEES

[3] = biological target: Calcium/calmodulin-dependent protein kinase type 1D (Homo sapiens) (UniProt Q8IU85); assay: Binding affinity to wild-type human partial length CAMK1D (M1 to K299 residues) expressed in bacterial expression system assessed as residual binding level at 10 uM by Kinomescan method relative to control
[4] = biological target: Cyclin-dependent kinase 8 (Homo sapiens) (UniProt P49336); assay: Binding affinity to wild-type human partial length CDK8 (M1 to T360 residues) expressed in bacterial expression system assessed as residual binding level at 10 uM by Kinomescan method relative to control
Sequence of Cyclin-dependent kinase 8 (Homo sapiens) (P49336 whole entry, the tested form may be a part, canonical isoform): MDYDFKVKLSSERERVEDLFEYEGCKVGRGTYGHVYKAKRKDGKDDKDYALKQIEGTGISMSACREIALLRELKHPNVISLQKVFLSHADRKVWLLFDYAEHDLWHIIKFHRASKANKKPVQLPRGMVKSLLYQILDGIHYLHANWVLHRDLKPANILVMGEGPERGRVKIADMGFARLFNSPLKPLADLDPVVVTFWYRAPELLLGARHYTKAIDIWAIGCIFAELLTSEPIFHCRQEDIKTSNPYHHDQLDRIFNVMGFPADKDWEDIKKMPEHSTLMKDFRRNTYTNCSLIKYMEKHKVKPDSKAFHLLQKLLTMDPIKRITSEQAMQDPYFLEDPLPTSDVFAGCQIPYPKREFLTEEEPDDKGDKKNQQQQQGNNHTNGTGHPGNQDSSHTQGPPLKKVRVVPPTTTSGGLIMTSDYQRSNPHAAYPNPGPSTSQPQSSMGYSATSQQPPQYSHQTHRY

[5] = biological target: Casein kinase I isoform epsilon (Homo sapiens) (UniProt P49674); assay: Binding affinity to wild-type human full length CSNK1E (M1 to K416 residues) expressed in bacterial expression system assessed as residual binding level at 10 uM by Kinomescan method relative to control
[6] = biological target: Ephrin type-A receptor 2 (Homo sapiens) (UniProt P29317); assay: Binding affinity to wild-type human partial length EPHA2 (T593 to V891 residues) expressed in bacterial expression system assessed as residual binding level at 10 uM by Kinomescan method relative to control
Sequence of Ephrin type-A receptor 2 (Homo sapiens) (P29317 whole entry, the tested form may be a part): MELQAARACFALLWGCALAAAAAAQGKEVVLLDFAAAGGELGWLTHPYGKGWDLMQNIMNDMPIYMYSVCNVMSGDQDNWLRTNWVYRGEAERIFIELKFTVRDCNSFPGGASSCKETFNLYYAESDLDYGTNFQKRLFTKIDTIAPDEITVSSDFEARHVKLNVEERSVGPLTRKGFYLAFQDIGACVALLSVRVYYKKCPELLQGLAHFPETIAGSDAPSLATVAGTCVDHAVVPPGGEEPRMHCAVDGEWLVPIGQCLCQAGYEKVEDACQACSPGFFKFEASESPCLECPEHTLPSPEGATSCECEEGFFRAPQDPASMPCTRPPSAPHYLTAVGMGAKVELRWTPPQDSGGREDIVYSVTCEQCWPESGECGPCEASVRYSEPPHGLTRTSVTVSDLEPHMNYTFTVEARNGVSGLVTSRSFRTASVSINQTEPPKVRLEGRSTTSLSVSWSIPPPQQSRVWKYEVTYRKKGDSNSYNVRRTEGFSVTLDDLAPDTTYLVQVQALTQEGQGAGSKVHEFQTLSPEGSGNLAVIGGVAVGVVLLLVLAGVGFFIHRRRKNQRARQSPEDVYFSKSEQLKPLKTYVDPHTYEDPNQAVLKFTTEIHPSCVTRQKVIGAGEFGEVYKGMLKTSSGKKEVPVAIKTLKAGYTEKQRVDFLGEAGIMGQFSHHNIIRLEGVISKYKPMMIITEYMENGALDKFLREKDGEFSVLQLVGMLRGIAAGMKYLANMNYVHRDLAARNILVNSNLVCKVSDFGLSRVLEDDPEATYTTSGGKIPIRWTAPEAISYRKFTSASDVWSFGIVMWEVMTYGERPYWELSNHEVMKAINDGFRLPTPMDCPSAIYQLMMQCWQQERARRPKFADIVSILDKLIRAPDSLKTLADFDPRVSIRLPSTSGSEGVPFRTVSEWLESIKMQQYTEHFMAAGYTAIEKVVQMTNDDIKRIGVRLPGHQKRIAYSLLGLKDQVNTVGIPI

[7] = biological target: Ephrin type-B receptor 4 (Homo sapiens) (UniProt P54760); assay: Binding affinity to wild-type human partial length EPHB4 (H585 to G892 residues) expressed in bacterial expression system assessed as residual binding level at 10 uM by Kinomescan method relative to control
[8] = biological target: Fibroblast growth factor receptor 1 (Homo sapiens) (UniProt P11362); assay: Binding affinity to wild-type human partial length FGFR1 (P357 to V669 residues) expressed in bacterial expression system assessed as residual binding level at 10 uM by Kinomescan method relative to control
[9] = tested on: eIF-2-alpha kinase GCN2 (Homo sapiens), Q9P2K8 [S808G]; assay: Binding affinity to wild-type human partial length GCN2 kinase domain 2 (R585 to T1018 residues) S808G mutant expressed in bacterial expression system assessed as residual binding level at 10 uM by Kinomescan method relative to control
[10] = biological target: Serine/threonine-protein kinase haspin (Homo sapiens) (UniProt Q8TF76); assay: Binding affinity to wild-type human partial length HASPIN (I452 to K798 residues) expressed in mammalian expression system assessed as residual binding level at 10 uM by Kinomescan method relative to control
[11] = biological target: Mitogen-activated protein kinase kinase kinase kinase 1 (Homo sapiens) (UniProt Q92918); assay: Binding affinity to wild-type human full length HPK1 (M1 to R799 residues) expressed in bacterial expression system assessed as residual binding level at 10 uM by Kinomescan method relative to control
[12] = biological target: Inhibitor of nuclear factor kappa-B kinase subunit beta (Homo sapiens) (UniProt O14920); assay: Binding affinity to wild-type human full length IKK-beta (M1 to S756 residues) expressed in mammalian expression system assessed as residual binding level at 10 uM by Kinomescan method relative to control
[13] = biological target: Mitogen-activated protein kinase kinase kinase kinase 4 (Homo sapiens) (UniProt O95819); assay: Binding affinity to wild-type human partial length MAP4K4 (M1 to R310 residues) expressed in bacterial expression system assessed as residual binding level at 10 uM by Kinomescan method relative to control
[14] = biological target: MAP/microtubule affinity-regulating kinase 3 (Homo sapiens) (UniProt P27448); assay: Binding affinity to wild-type human full length MARK3 (M1 to L729 residues) expressed in bacterial expression system assessed as residual binding level at 10 uM by Kinomescan method relative to control
[15] = biological target: Dual specificity mitogen-activated protein kinase kinase 1 (Homo sapiens) (UniProt Q02750); assay: Binding affinity to wild-type human full length MEK1 (M1 to V393 residues) expressed in mammalian expression system assessed as residual binding level at 10 uM by Kinomescan method relative to control
[16] = biological target: Dual specificity mitogen-activated protein kinase kinase 7 (Homo sapiens) (UniProt O14733); assay: Binding affinity to wild-type human full length MKK7 (M1 to R419 residues) expressed in mammalian expression system assessed as residual binding level at 10 uM by Kinomescan method relative to control
[17] = biological target: Macrophage-stimulating protein receptor (Homo sapiens) (UniProt Q04912); assay: Binding affinity to wild-type human partial length MST1R (I1057 to L1363 residues) expressed in bacterial expression system assessed as residual binding level at 10 uM by Kinomescan method relative to control
Sequence of Macrophage-stimulating protein receptor (Homo sapiens) (Q04912 25-304 limits assumed): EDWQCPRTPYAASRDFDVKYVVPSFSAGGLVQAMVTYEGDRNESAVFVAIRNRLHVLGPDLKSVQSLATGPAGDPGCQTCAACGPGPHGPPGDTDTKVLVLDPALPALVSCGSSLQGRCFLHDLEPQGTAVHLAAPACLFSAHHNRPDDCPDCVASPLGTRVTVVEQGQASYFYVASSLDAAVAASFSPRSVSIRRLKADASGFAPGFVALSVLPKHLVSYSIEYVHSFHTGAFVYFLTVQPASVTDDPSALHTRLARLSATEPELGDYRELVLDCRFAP
Sequence of Macrophage-stimulating protein receptor (Homo sapiens) (Q04912 310-1400 limits assumed): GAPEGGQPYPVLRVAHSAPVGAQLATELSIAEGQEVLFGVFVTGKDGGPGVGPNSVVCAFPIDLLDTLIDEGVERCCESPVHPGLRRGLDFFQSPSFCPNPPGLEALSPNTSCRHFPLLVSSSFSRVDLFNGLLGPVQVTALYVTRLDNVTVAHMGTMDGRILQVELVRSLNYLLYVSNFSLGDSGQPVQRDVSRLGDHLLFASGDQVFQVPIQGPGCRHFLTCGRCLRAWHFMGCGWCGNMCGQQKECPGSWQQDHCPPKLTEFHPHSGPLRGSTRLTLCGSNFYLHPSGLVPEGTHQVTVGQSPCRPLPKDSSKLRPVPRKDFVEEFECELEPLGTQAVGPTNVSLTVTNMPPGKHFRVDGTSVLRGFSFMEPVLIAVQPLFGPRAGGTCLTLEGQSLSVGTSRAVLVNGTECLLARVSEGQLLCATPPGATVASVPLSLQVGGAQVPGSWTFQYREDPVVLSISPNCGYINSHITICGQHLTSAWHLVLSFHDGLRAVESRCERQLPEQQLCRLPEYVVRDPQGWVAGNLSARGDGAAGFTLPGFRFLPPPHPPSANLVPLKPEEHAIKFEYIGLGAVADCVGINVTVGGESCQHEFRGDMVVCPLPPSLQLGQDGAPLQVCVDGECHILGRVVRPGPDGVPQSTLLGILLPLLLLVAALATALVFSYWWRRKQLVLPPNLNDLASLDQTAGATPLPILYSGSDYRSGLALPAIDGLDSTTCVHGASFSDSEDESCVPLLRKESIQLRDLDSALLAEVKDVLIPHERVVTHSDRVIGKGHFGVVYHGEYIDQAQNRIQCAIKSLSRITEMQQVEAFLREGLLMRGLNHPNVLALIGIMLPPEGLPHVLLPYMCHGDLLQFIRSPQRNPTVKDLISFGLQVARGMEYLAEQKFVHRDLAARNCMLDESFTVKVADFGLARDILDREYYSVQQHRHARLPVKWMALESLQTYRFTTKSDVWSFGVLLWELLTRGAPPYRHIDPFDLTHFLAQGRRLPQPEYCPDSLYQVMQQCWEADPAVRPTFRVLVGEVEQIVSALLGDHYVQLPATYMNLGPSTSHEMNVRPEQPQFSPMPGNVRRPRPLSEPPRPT

[18] = biological target: Serine/threonine-protein kinase Nek2 (Homo sapiens) (UniProt P51955); assay: Binding affinity to wild-type human partial length NEK2 (M1 to K309 residues) expressed in bacterial expression system assessed as residual binding level at 10 uM by Kinomescan method relative to control
Sequence of Serine/threonine-protein kinase Nek2 (Homo sapiens) (P51955 whole entry, the tested form may be a part): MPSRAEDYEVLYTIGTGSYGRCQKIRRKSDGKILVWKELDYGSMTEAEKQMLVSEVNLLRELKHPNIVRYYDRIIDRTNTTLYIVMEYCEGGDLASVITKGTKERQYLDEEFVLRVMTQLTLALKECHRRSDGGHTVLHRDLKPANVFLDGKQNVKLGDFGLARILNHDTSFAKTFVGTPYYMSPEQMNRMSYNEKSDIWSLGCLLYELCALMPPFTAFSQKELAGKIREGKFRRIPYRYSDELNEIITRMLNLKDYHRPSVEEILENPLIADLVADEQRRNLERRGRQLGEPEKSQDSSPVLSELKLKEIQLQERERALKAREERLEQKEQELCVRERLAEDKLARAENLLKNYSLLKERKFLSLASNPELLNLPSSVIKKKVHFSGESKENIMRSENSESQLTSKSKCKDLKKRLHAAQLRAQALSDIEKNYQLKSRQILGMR

[19] = biological target: Serine/threonine-protein kinase PAK 3 (Homo sapiens) (UniProt O75914); assay: Binding affinity to wild-type human full length PAK3 (M1 to R544 residues) expressed in bacterial expression system assessed as residual binding level at 10 uM by Kinomescan method relative to control
[20] = biological target: Phosphatidylinositol 5-phosphate 4-kinase type-2 beta (Homo sapiens) (UniProt P78356); assay: Binding affinity to wild-type human full length PIP5K2B (M1 to T416 residues) expressed in bacterial expression system assessed as residual binding level at 10 uM by Kinomescan method relative to control
Sequence of Phosphatidylinositol 5-phosphate 4-kinase type-2 beta (Homo sapiens) (P78356 whole entry, the tested form may be a part): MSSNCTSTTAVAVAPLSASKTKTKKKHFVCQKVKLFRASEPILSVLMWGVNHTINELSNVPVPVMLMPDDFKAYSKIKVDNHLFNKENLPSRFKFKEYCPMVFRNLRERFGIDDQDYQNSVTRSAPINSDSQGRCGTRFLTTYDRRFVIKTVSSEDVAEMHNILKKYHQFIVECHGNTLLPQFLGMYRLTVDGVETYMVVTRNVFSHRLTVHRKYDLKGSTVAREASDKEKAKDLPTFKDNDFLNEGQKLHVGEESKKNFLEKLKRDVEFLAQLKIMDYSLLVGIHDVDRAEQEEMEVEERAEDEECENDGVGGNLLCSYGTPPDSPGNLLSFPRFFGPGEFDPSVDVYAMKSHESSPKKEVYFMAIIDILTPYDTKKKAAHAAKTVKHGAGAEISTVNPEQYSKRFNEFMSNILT

[21] = biological target: Serine/threonine-protein kinase RIO1 (Homo sapiens) (UniProt Q9BRS2); assay: Binding affinity to wild-type human full length RIOK1 (M1 to K568 residues) expressed in bacterial expression system assessed as residual binding level at 10 uM by Kinomescan method relative to control
[22] = biological target: Ribosomal protein S6 kinase alpha-3 (Homo sapiens) (UniProt P51812); assay: Binding affinity to wild-type human partial length C-terminal RSK2 kinase domain 2 (V402 to S715 residues) expressed in mammalian expression system assessed as residual binding level at 10 uM by Kinomescan method relative to control
[23] = biological target: Serine/threonine-protein kinase 33 (Homo sapiens) (UniProt Q9BYT3); assay: Binding affinity to wild-type human full length STK33 (M1 to L514 residues) expressed in bacterial expression system assessed as residual binding level at 10 uM by Kinomescan method relative to control
Sequence of Serine/threonine-protein kinase 33 (Homo sapiens) (Q9BYT3 whole entry, looked up, the tested form may be a part): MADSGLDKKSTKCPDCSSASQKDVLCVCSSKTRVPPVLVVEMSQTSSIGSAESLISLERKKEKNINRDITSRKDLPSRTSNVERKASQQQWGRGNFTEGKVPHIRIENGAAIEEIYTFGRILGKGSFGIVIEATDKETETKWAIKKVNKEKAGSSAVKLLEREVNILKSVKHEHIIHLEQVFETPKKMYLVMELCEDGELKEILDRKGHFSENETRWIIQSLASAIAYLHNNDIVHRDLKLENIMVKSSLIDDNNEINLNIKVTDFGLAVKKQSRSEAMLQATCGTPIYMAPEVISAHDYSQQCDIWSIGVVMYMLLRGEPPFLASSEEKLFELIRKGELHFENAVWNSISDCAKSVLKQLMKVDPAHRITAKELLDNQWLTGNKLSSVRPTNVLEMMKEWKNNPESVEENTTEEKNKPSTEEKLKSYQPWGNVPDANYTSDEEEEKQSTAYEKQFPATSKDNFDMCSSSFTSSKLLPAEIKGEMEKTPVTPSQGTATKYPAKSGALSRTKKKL

[24] = biological target: Serine/threonine-protein kinase ULK3 (Homo sapiens) (UniProt Q6PHR2); assay: Binding affinity to wild-type human partial length ULK3 (M1 to Q290 residues) expressed in mammalian expression system assessed as residual binding level at 10 uM by Kinomescan method relative to control

Compound `CC(C)N1C(=O)C(NCCCN(C)C)=C(c2cn(C)c3ccccc23)C1=O.Cl` has an Activity [1] of 100%, an Activity [2] of 100% and an Activity [3] of 83%. For the same compound, the Activity [4] was 100%, the Activity [5] was 89% and the Activity [6] was 90%. It also gave an Activity [7] of 100%, an Activity [8] of 84% and an Activity [9] of 100%. The Activity [10] was 100%, the Activity [11] was 100% and the Activity [12] was 83%. For the same compound, the Activity [13] was 95%, the Activity [14] was 78% and the Activity [15] was 84%. For the same compound, the Activity [16] was 88%, the Activity [17] was 100% and the Activity [18] was 94%. It also gave an Activity [19] of 100%, an Activity [20] of 100% and an Activity [21] of 100%. The Activity [22] was 87%, the Activity [23] was 100% and the Activity [24] was 79%.
